Entries after “also recorded” stand apart in the source; their conditions may differ.
How the values were obtained:
[1] = tested on: HMGB1 protein released from keratinocytes; experiment: In Vitro UV Stress Test: HMGB1 released from UVB-exposed keratinocytes (ELISA); assay type: cell-based, human; details: for HMGB1 Released: 0.001 w/v % after 15 mJ/cm^2 UVB, 24 hours, UV untreated 19.4, no UV 10.5; for effect on amount of HMGB1 protein released by keratinocytes exposed to UVB (in words): compared to the untreated UVB exposed cells
Protocol: This example compares the ability of nicotinamide riboside and niacinamide to reduce the amount of HMGB1 protein released from keratinocytes subjected to stress from ultraviolet (“UV”) radiation. Human neonatal keratinocytes (available from Thermo) were placed in each well of four 12-well plates. Each well also contained 2 ml of EPILIFE brand keratinocyte medium. The plates were incubated at 37° C. in a CO2 incubator until cell confluency reached 70%. At this point, the cells, except for the negative control, were exposed to 15 mJ/cm^2 UVB (i.e., UV radiation with a wavelength of from 315-280 nm) in a BIO-SUN brand UV irradiating system (available from Vilber Lourmat, France). After UVB exposure, the keratinocyte medium in each well was replaced with an appropriate medium (i.e., niacinamide medium, nicotinamide riboside medium or a control medium) to produce the test plates. The test plates were incubated for 24 hours at 37° C. in a CO2 incubator, after which the medium in each cell was removed and the HMGB1 level measured using a conventional HMGB1 ELISA kit (REF # ST51011, available from IBL International, Canada) according to the manufacturer's instructions. The test media were made by adding either niacinamide or nicotinamide riboside to EPILIFE brand keratinocyte medium to produce a 0.001 w/v % solution. The control medium was unmodified keratinocyte medium.

[2] = tested on: human neonatal keratinocytes; experiment: Melanosome Uptake Assay (CFDA-labeled melanosomes, flow cytometry); assay type: cell-based; details: for % Uptake: 0.0025 w/v % in keratinocyte medium, fraction of keratinocytes with detectable CFDA, vehicle control 36; for Rate of Melanosome Uptake Versus Control: 0.0025 w/v %, vehicle control = 100%
Protocol: Melanosome uptake was determined as follows. Carboxyfluorescein diacetate (“CFDA”) (available from Sigma, St. Louis, Mo.) labeled melanosomes were prepared by incubating CFDA dye in SKMEL-188 culture cells (available from Sloan Kettering Institute) for 2 days at 37° C. in a THERMO SCIENTIFIC FORMA brand CO2 incubator (available from Fisher Scientific, Waltham, Mass.). On day 3 of the test, melanosomes were isolated from SKMEL-188 cells by step density centrifugation with sucrose solutions layered with different densities, which is well known in the art. Melanosomes were taken from the 1.6 M-2.0 M sucrose layers. The isolated melanosomes were placed in each well of a 6-well plate along with human neonatal keratinocytes (available from Thermo) (approximately 50,000 keratinocytes/well). 2 ml of the appropriate medium (i.e., the test composition, the positive control or the vehicle control) was added to each of the wells to produce […] (i.e., 3 replicates of each of three composition tested). The test composition was made by adding nicotinamide riboside chloride powder (available from Chromadex, Irvine, Calif.) to EPILIFE brand keratinocyte medium to produce a solution of 0.0025 w/v % nicotinamide riboside. The positive control was made by adding niacinamide to EPILIFE brand keratinocyte medium to produce a solution of 0.0025 w/v % niacinamide. Unmodified keratinocyte medium was used as a vehicle control.
The resulting test plates were incubated for two days in EPILIFE brand keratinocyte medium. On day 6 of the test, the keratinocytes were detached from the plates using trypsin and fluorescent-label counted by flow cytometry using an LSRFortessa brand flow cytometer (available from Becton Dickinson, NJ). The percentage of cells that had fluorescence (from CFDA label) was used as a metric to determine melanosome uptake. Keratinocytes containing detectable levels of CFDA were counted as a fraction of all keratinocytes passing through the flow cytometer (indicated as % uptake in Table 2). A higher percentage corresponds to a higher level of melanosome uptake into the keratinocytes.

Compound | HMGB1 Released [1] [pg/mL] | effect on amount of HMGB1 protein released by keratinocytes exposed to UVB (in words) [1] | % Uptake [2] [%] | Rate of Melanosome Uptake Versus Control [2] [%] | effect on uptake of melanosomes from melanocytes into keratinocytes (in words) ([2]; compared to the vehicle control)
NC(=O)c1cccnc1 [niacinamide, reference compound] | 17.8 | no significant effect | 26 | 72 | inhibit the rate of melanosome uptake
Nicotinamide riboside [NR] | 11.5 | reduces the amount of HMGB1 protein released from keratinocytes; also recorded: released less HMGB1 protein | 67 | 186 | 

Reference: patent publication US20160317418A1, “METHOD OF IMPROVING THE APPEARANCE OF SKIN AND COMPOSITIONS THEREFOR” (The Procter & Gamble Company, priority 2015, published 2016)
